These are literature values, as cited in patent publication US20260355142A1, “AMORPHOUS OTE[…] COMPOSITIONS AND USES THEREOF AND DOSAGE REGIMENS FOR OTENAPROXESUL” (ANTIBE THERAPEUTICS INC., priority 2022, published 2026).

The conditions of the series: efficacious dose of naproxen, known in the art; cited from earlier work.

Regarding `COc1ccc2cc([C@H](C)C(=O)O)ccc2c1` [naproxen, (2S)-2-(6-methoxynaphthalen-2-yl) propanoic acid], the “patients with noticeable GI injury” value was “approximately 30%”.
